According to publication PMC5341033, “Transcriptomic insight into terpenoid and carbazole alkaloid biosynthesis, and functional characterization of two terpene synthases in curry tree (Murraya koenigii)” (Scientific Reports, 2017):

Legend:
MkTPS2 = target: T1, MkTPS2 (Murraya koenigii, UniProt A0A1U9M7X9); assay: terpene synthase assay, SPME GC-MS of products; format: biochemical; conditions: 70 μM FPP; 1 mM MgCl2, 5 mM DTT, 30 mM HEPES pH 7.5, 30 °C 2 h; product (E,E)-α-farnesene
T1 construct: full-length ORF, 560 aa; E. coli Rosetta-2; Ni-NTA purified

MkTPS1 = target: T2, MkTPS1 (Murraya koenigii, UniProt A0A1U9M7Y9); assay: terpene synthase assay, SPME GC-MS of products; format: biochemical; conditions: 70 μM GPP; 1 mM MgCl2, 5 mM DTT, 30 mM HEPES pH 7.5, 30 °C 2 h; product (−)-sabinene
T2 construct: plastid transit peptide truncated at Met-40; full length 602 aa; E. coli Rosetta-2; Ni-NTA purified
T2 sequence (A0A1U9M7Y9 entry or part of it): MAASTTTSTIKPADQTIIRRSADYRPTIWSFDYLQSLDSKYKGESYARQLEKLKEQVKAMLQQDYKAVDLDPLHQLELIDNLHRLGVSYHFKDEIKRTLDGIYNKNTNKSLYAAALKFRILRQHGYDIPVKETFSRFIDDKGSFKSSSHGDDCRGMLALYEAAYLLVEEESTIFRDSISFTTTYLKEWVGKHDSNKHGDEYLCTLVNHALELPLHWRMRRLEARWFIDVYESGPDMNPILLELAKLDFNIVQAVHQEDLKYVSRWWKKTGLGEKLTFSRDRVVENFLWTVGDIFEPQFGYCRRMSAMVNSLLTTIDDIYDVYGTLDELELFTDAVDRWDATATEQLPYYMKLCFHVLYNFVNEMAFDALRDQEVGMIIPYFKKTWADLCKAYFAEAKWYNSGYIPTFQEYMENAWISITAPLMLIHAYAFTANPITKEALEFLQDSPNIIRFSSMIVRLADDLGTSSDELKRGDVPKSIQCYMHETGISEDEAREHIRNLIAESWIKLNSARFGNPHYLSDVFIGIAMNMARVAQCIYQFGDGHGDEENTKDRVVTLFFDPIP

T1 sequence (A0A1U9M7X9 entry or part of it): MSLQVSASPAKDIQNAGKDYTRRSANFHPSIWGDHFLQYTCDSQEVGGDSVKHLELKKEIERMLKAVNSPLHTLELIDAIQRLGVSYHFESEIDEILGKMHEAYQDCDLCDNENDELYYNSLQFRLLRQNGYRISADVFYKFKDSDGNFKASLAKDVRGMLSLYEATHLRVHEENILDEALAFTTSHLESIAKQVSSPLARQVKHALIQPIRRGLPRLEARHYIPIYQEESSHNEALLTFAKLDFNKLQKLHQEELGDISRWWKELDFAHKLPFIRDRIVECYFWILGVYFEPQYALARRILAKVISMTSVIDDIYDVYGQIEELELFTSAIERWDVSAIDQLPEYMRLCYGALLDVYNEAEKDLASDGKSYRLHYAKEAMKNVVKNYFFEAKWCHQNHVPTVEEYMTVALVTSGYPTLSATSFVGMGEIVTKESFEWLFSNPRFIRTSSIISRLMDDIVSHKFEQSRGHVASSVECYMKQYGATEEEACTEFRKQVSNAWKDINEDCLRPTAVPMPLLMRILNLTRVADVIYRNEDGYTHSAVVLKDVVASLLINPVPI

SMILES | terpene synthase assay, SPME GC-MS of products (MkTPS2) | terpene synthase assay, SPME GC-MS of products (MkTPS1)
CC(C)=CCC/C(C)=C/CC/C(C)=C/COP(=O)(O)OP(=O)(O)O [farnesyl diphosphate] | MkTPS2, the product analysis showed the formation of α-farnesene with FPP as substrate | –
CC(C)=CCC/C(C)=C/COP(=O)(O)OP(=O)(O)O [geranyl diphosphate] | – | MkTPS1 showed the formation of predominantly sabinene utilizing GPP as substrate
